Experimental data reported in the supplement of paper PMC4862054.

Key:
Details in all cases: incubation time: 72 h
BT-474 [1] = assay: normalised response (% of control), CellTox Green; higher = less cell death (100 = DMSO, 0 = benzethonium chloride kill control)
In short: (§1)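 Values are normalised signals, each belonging to one concentration of the series. Breast cancer cells (20 µl suspension) were seeded into 384-well plates with compound at 5 concentrations in 10-fold steps over a compound-specific 10,000-fold range and incubated 72 h. Readouts were CellTox Green fluorescence (485/520 nm), then CellTiter-Glo luminescence after 10 min at room temperature, with each plate set to 0.1 % DMSO as 100 and a positive kill control as 0.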

BT-549 [2] = assay: as above
In short: as §1

CAL-120 [3] = assay: as above
In short: as §1

CAL-148 [4] = assay: as above
In short: as §1

CAL-51 [5] = assay: as above
In short: as §1

CAL-85-1 [6] = assay: as above
In short: as §1

DU-4475 [7] = assay: as above
In short: as §1

HCC1143 [8] = assay: as above
In short: as §1

HCC1599 [9] = assay: as above
In short: as §1

HCC1937 [10] = assay: as above
In short: as §1

Hs578T [11] = assay: as above
In short: as §1

MCF-10A [12] = assay: as above
In short: as §1

MDA-MB-231 [13] = assay: as above
In short: as §1

MDA-MB-436 [14] = assay: as above
In short: as §1

MDA-MB-453 [15] = assay: as above
In short: as §1

MDA-MB-468 [16] = assay: as above
In short: as §1

MFM-223 [17] = assay: as above
In short: as §1

BT-474 [18] = assay: normalised response (% of control), CellTiter-Glo; higher = more viable cells (100 = DMSO, 0 = benzethonium chloride kill control)
Description: (§2)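 DSRT, 72 h incubation, CellTox Green / CellTiter-Glo readout. Signal is normalised to DMSO and benzethonium chloride controls. Value is the normalised response at dose 3.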

BT-549 [19] = assay: as above
Description: as §2

CAL-120 [20] = assay: as above
Description: as §2

CAL-148 [21] = assay: as above
Description: as §2

CAL-51 [22] = assay: as above
Description: as §2

CAL-85-1 [23] = assay: as above
Description: as §2

DU-4475 [24] = assay: as above
Description: as §2

HCC1143 [25] = assay: as above
Description: as §2

HCC1599 [26] = assay: as above
Description: as §2

HCC1937 [27] = assay: as above
Description: as §2

HDQ-P1 [28] = assay: as above
Description: as §2

Hs578T [29] = assay: as above
Description: as §2

MCF-10A [30] = assay: as above
Description: as §2

MDA-MB-231 [31] = assay: as above
Description: as §2

MDA-MB-436 [32] = assay: as above
Description: as §2

MDA-MB-453 [33] = assay: as above
Description: as §2

MDA-MB-468 [34] = assay: as above
Description: as §2

MFM-223 [35] = assay: as above
Description: as §2

SK-BR-3 = assay: as above
Description: as §2

HDQ-P1 [36] = assay: normalised response (% of control), CellTox Green; higher = less cell death (100 = DMSO, 0 = benzethonium chloride kill control)
In short: as §1

| Compound | normalised response (BT-474 [1]) [%] | normalised response (BT-549 [2]) [%] | normalised response (CAL-120 [3]) [%] | normalised response (CAL-148 [4]) [%] | normalised response (CAL-51 [5]) [%] | normalised response (CAL-85-1 [6]) [%] | normalised response (DU-4475 [7]) [%] | normalised response (HCC1143 [8]) [%] | normalised response (HCC1599 [9]) [%] | normalised response (HCC1937 [10]) [%] | normalised response (Hs578T [11]) [%] | normalised response (MCF-10A [12]) [%] | normalised response (MDA-MB-231 [13]) [%] | normalised response (MDA-MB-436 [14]) [%] | normalised response (MDA-MB-453 [15]) [%] | normalised response (MDA-MB-468 [16]) [%] | normalised response (MFM-223 [17]) [%] | normalised response (BT-474 [18]) [%] | normalised response (BT-549 [19]) [%] | normalised response (CAL-120 [20]) [%] | normalised response (CAL-148 [21]) [%] | normalised response (CAL-51 [22]) [%] | normalised response (CAL-85-1 [23]) [%] | normalised response (DU-4475 [24]) [%] | normalised response (HCC1143 [25]) [%] | normalised response (HCC1599 [26]) [%] | normalised response (HCC1937 [27]) [%] | normalised response (HDQ-P1 [28]) [%] | normalised response (Hs578T [29]) [%] | normalised response (MCF-10A [30]) [%] | normalised response (MDA-MB-231 [31]) [%] | normalised response (MDA-MB-436 [32]) [%] | normalised response (MDA-MB-453 [33]) [%] | normalised response (MDA-MB-468 [34]) [%] | normalised response (MFM-223 [35]) [%] | normalised response (SK-BR-3) [%] | normalised response (HDQ-P1 [36]) [%] |
| --- | --- | --- | --- | --- | --- | --- | --- | --- | --- | --- | --- | --- | --- | --- | --- | --- | --- | --- | --- | --- | --- | --- | --- | --- | --- | --- | --- | --- | --- | --- | --- | --- | --- | --- | --- | --- | --- |
| Cc1c(Cn2c(C)nc3c(C(=O)O)cc(N4CCOCC4)cc32)cccc1C(F)(F)F (100 nM) | 104 | 111 | 106 | 105 | 86.7 | 104 | 109 | 113 | 107 | 78 | 109 | 101 | 124 | 108 | 111 | 134 | 107 | 97.2 | 86.2 | 102 | 111 | 62.5 | 96.6 | 103 | 101 | 101 | 94.5 | 103 | 101 | 111 | 104 | 102 | 91.3 | 89.2 | 108 | 107 | – |
| CCCCC/C=C/C=C1/C(=O)C=C[C@@H]1C/C=C\CCCC(=O)O [15D-PGJ2] (8 nM) | 102 | 112 | 99.3 | 88.1 | 107 | 109 | 110 | 105 | 111 | 101 | 113 | 64.6 | 118 | 103 | – | 82 | 100 | 98.7 | 99.3 | 107 | 112 | 97.1 | 100 | 101 | 104 | 86.3 | 99.1 | 103 | 96.9 | 101 | 107 | 101 | 100 | 94 | 98.5 | 99.4 | – |
| CC(=O)OC[C@H]1O[C@@H]([S-])[C@H](OC(C)=O)[C@@H](OC(C)=O)[C@@H]1OC(C)=O.CCP(CC)CC.[Au+] [Auranofin] (25 nM) | 105 | 110 | 110 | 108 | 100 | 122 | 112 | 88.9 | 111 | 113 | – | 62.3 | 123 | – | 109 | 117 | 102 | 96.8 | 93.1 | 100 | 111 | 92.5 | 99 | 98.2 | 104 | 89.1 | 93.8 | 101 | 103 | 104 | 103 | 103 | 104 | 103 | 97.8 | 101 | 93.8 |
| O=S(=O)(c1cccc2cnccc12)N1CCCNCC1 [Fasudil] (500 nM) | 98.3 | 91.3 | 100 | 69.2 | 102 | 95.6 | 100 | 75 | 101 | 83.3 | 104 | 95 | 101 | – | 99.9 | 78.7 | 91.7 | 98.3 | 101 | 97.9 | 105 | 85.6 | 112 | 106 | 101 | 107 | 100 | 105 | 104 | 90.7 | 103 | 103 | 112 | 101 | 108 | 101 | 102 |
| Cc1c(CN2CCN(C(=O)[C@H](C)O)CC2)sc2c(N3CCOCC3)nc(-c3cnc(N)nc3)nc12 [GDC-0980] (100 nM) | 101 | 106 | 102 | – | 112 | 106 | 99.9 | 113 | 106 | 114 | – | 83.3 | 81.2 | 108 | 98 | 124 | 105 | 93.5 | 90.1 | 96.2 | 102 | 86.3 | 99.9 | 98 | 92.9 | 98.3 | 89.3 | 84 | 86.2 | 90.8 | 97.1 | 92.5 | 75.8 | 95.9 | 93.6 | 72.5 | 110 |
| Cc1cccc(-c2nn3c(c2-c2ccnc4ccc(C(N)=O)cc24)CCC3)n1 [Galunisertib] (10 nM) | 103 | 114 | 105 | 106 | 114 | 107 | 109 | 70.5 | 116 | 123 | 100 | 82.4 | 116 | 104 | 103 | 101 | 107 | 108 | 104 | 109 | 112 | 120 | 96.8 | 108 | 103 | 102 | 101 | 104 | 103 | 111 | 113 | 106 | 110 | 107 | 106 | 110 | – |
| COc1nc(N)nc2c1ncn2[C@@H]1O[C@H](CO)[C@@H](O)[C@@H]1O [Nelarabine] (100 nM) | 75.7 | 98.7 | 98.4 | 104 | 93.8 | 90.6 | 95.2 | – | 87 | 88.7 | 107 | – | 92.1 | 90.5 | 97.5 | 135 | 100 | 89.2 | 98.1 | 94.2 | 83.2 | 90.7 | 94.7 | 93.6 | 103 | 103 | 95.5 | 95.9 | 87.1 | 84.9 | 94.2 | 94 | 87.2 | 95.6 | 89 | 77.8 | – |
| O=C(NC[C@H](O)CO)c1ccncc1Nc1ccc(I)cc1F [Pimasertib] (100 nM) | 98 | 59.3 | 96.5 | 107 | 107 | 91.4 | 69.4 | 99.8 | 118 | 101 | 113 | 98.9 | 59.1 | – | 99.4 | 108 | 107 | 81.9 | 103 | 92.4 | 90.4 | 73.7 | 82.4 | 4.09 | 94.7 | 85.2 | 89.2 | 67.1 | 88.9 | 41.7 | 83.5 | 97.5 | 112 | 95.3 | 103 | 94 | 104 |
| O=C(CCBr)N1CCN(C(=O)CCBr)CC1 [Pipobroman] (100 nM) | 87.5 | 70.2 | 101 | 105 | 101 | 109 | 101 | 108 | 96.6 | – | – | 84.8 | 94.4 | 101 | – | – | 103 | 102 | 97.6 | 102 | 105 | 88 | 101 | 106 | 105 | 115 | 106 | 102 | 105 | 106 | 105 | 91.5 | 93.2 | 102 | 103 | 107 | 107 |
